Results: US9902934B2, “Human keratinocytes PTCH1 cell line” (GALDERMA RESEARCH & DEVELOPMENT, priority 2011, dated 2018)

Key:
[1] = system: SHH/PTCH pathway; experiment: Activation of PTCH1-luciferase reporter activity in SK PTCH1-Luc E6/E7 keratinocytes; type: cell-based, human; details: SK PTCH1-Luc E6/E7 cells, cultured 24 hours
Method: (§1) Purmorphamine (SMO agonist) and GDC-0449 (SMO antagonist) were diluted in DMSO at stock concentrations of 50 mM and 10 mM, respectively. To avoid side effects and toxicity, the final concentration of DMSO was fixed to 0.1% DMSO.
(§2) Lysis buffer and luciferase reagents were from the Steady-Glo® Luciferase Assay System kit (Promega, #E2520). Plates were read on a […] (TopCount, Perkin Elmer).
(§3) Experimental conditions of activation using SMO agonist of the PTCH1-Luc-E6 E7 reporter cells were first set up for optimisation. The SK PTCH1-Luc E6/E7 cells were plated in 96-well at various densities (5000 to 50000 cells/well) in opaque plates (Greiner, ref: 655083). In parallel, in order to follow cell growth, confluency, and lysis, the cell line was also seeded in transparent 96 wells plates (Greiner 655098). Serial dilutions of purmorphamine were prepared (0.2 nM<Conc.<50 μM). Results were matched with EC50 and IC50 values obtained in the SHH-Light II cell line.
Once experimental conditions optimized, SK PTCH1-Luc E6/E7 cells were plated at 45.000 cells per well, culture for 24 hours then treated for 48 hours by serial dilutions of purmorphamine. Each condition was done in duplicate and the experiment was performed at least twice. SK PTCH1-Luc E6/E7 cells responded to activation of the SHH/PTCH pathway when treated with purmorphamine and the EC50 value was determined at 1 μM (FIG. 3).

[2] = system: SHH/PTCH pathway; experiment: Inhibition of purmorphamine-induced luciferase activity in SK PTCH1-Luc E6/E7 keratinocytes; type: cell-based; details: Homo sapiens, Keratinocyte, SK PTCH1-Luc E6/E7 cells, co-treatment 48 hours with 2.5 μM purmorphamine (EC80)
Method: as §1, §2, §3
Co-treatment of SK PTCH1-Luc E6/E7 cells with purmorphamine and GDC-0449 led to the inhibition of the luciferase activity (FIG. 5). Under these circumstances, the IC50 of GDC-0449 was determined at 0.2 μM.

c1ccc2c(Oc3nc(Nc4ccc(N5CCOCC5)cc4)c4ncn(C5CCCCC5)c4n3)cccc2c1 [purmorphamine, Purmorphamine]
EC50 ([1]; Homo sapiens, Keratinocyte, 45.000 cells per well, treated 48 hours): 1 µM | effective concentration for 80% activation (EC80) ([1]; 45.000 cells/well, treated 48 hrs): 2.5 µM

CS(=O)(=O)c1ccc(C(=O)Nc2ccc(Cl)c(-c3ccccn3)c2)c(Cl)c1 [GDC-0449]
IC50 [2]: 0.2 µM
